Where two headings read alike, the source gives them in different places.
Assays:
[1] = test system: bile acid uptake by hepatocyte receptors; conditions: 1 mmol/kg, cited from earlier work
[2] = test system: sandwich culture rat hepatocytes; conditions: cited from earlier work
[3] = test system: sandwich culture human hepatocytes; conditions: cited from earlier work
[4] = test system: sandwich culture rat hepatocyte; conditions: cited from earlier work
[5] = 40 mg/day rosuvastatin, cited from earlier work
[6] = in vivo; cited from earlier work
[7] = test system: hepatocellular uptake of bile acids; conditions: cited from earlier work
[8] = test system: atherosclerotic plaque in pig artery; assay: Solubilization of atherosclerotic plaque material in ex vivo samples of pig artery; conditions: 50 mg/mL DCA bath, after 5 hours
Procedure: Early in the treatment, on removal of the sample from the bath a clear, viscous, column of fluid extended from the sample. This column of fluid continued to be apparent when samples were evaluated up to about 4 or 5 hours, after which the fluid column was no longer noted. Without wishing to be held to any one theory of operation, it was concluded that the clear fluid comprised components of the plaque. […] The sample was continuously exposed for a period of 8 days.

[9] = fed to C57BL/6 LDL r-KO knockout mice, relative to mice not provided HDCA; cited from earlier work
[10] = wild type mice, same amount of dietary HDCA; cited from earlier work

ClC=C(Cl)Cl [trichloroethylene]
serum bile acids [1]: serum accumulation of bile acids
bile acid uptake by hepatocyte receptors ([1]; rather than actual cell damage): reversible physiological interference

CC(C)c1nc(CN(C)C(=O)N[C@H](C(=O)N[C@@H](Cc2ccccc2)C[C@H](O)[C@H](Cc2ccccc2)NC(=O)OCc2cncs2)C(C)C)cs1 [ritonavir]
bile acid transport ([2]; 28 μM): inhibit
bile acid transport ([3]; 28 μM): inhibit

Cc1c(C)c2c(c(C)c1O)CCC(C)(COc1ccc(CC3SC(=O)NC3=O)cc1)O2 (stereo not drawn) [troglitazone]
hepatic uptake and excretion of bile acids from the bile pole of the hepatocyte ([4]; 10 μM): inhibit

CC(C)c1nc(N(C)S(C)(=O)=O)nc(-c2ccc(F)cc2)c1/C=C/[C@@H](O)C[C@@H](O)CC(=O)O [rosuvastatin]
reduction with respect to normalized total atheroma volume ([5]; after 2 years, SD=11.1): 6.7%
plaque volume reduced, most diseased segments of vessels examined ([5]; after 2 years, SD=13.7): 8.5%
modulating LDL, HDL, and triglyceride levels [5]: particularly effective

CC(=O)N1CCN(c2ccc(OCC3COC(Cn4ccnc4)(c4ccc(Cl)cc4Cl)O3)cc2)CC1 (stereo not drawn) [ketoconazole]
side effect [6]: hepatotoxicity
serum levels of cholic acid, taurocholic acid, and chenodeoxycholic acid ([7]; 25 mg/kg): increase
serum levels of cholic, taurocholic, chenodeoxycholic, glycocholic, glycochenodeoxycholic, glycodeoxycholic, deoxycholic and taurochenodeoxycholic acid ([7]; 50 mg/kg): increase
hepatocellular uptake of bile acids ([7]; dose related, relatively specific): strongly inhibiting

O=C1Nc2ccc(Cl)cc2[C@@](C#CC2CC2)(C(F)(F)F)O1 [efavirenz]
bile acid transport ([2]; 32 μM): inhibit
bile acid transport ([3]; 32 μM): inhibit

C[C@H](CCC(=O)O)[C@H]1CC[C@H]2[C@@H]3CC[C@@H]4C[C@H](O)CC[C@]4(C)[C@H]3C[C@H](O)[C@]12C [DCA, deoxycholic acid]
plaque volume decreased (macroscopic assessment) [8]: about 70%

COc1ccccc1Oc1c(NS(=O)(=O)c2ccc(C(C)(C)C)cc2)nc(-c2ncccn2)nc1OCCO [bosentan]
hepatic uptake and excretion of bile acids from the bile pole of the hepatocyte ([4]; 100 μM): inhibit

C[C@H](CCC(=O)O)[C@H]1CC[C@H]2[C@@H]3C[C@H](O)[C@@H]4C[C@H](O)CC[C@]4(C)[C@H]3CC[C@]12C [HDCA, hyodeoxycholic acid]
rate of formation of atherosclerotic plaque [9]: reduced rate of formation
plasma levels [10]: up to 50 μM

— US20080287429A1 (Z & Z Medical Holdings, Inc., priority 2007, published 2008)
